Results published in patent US7759345B2, “Antitumoral derivatives of ET-743” (priority 2001, dated 2010).
Where two headings read alike, the source gives them in different places.

Tests used:
HT-29 [1] = assay: Inhibition of cell growth by counting cells, HT-29; assay type: cell-based, human; conditions: Homo sapiens, HT-29, 72 h; three days of incubation; read-out: IC50 (molar) HT-29
Description: (§1) 1°.—Inhibition of Cell Growth by Counting Cells.
(§2) This form of the assay employs 24 well multidishes of 16 mm diameter (Bergeron, 1984; Schroeder, 1981). The tumor cell lines employed are: P-388 (ATCC CCL 46), suspension culture of a lymphoid neoplasm from a DBA/2 mouse; A-549 (ATCC CCL 185), monolayer culture of a human lung carcinoma; HT-29 (ATCC HTB-38), monolayer culture of a human colon carcinoma; MEL-28 (ATCC HTB-72), monolayer culture of a human melanoma and DU-145 (ATCC HTB-81), monolayer culture of a human prostate carcinoma.
(§3) Cells were maintained, in logarithmic phase of growth in Eagle's Minimum Essential Medium, with Earle's Balanced Salts, with non-essential amino acids, with 2.0 mM L-Glutamine, without sodium bicarbonate (EMEM/neaa), supplemented with 10% Fetal Calf Serum (FCS), 10^−2 M. sodium bicarbonate and 0.1 U/l penicillin G+0.1 g/l streptomycin sulfate. For the experiments, cells are harvested from subconfluent cultures using trypsin and resuspended in fresh medium before plating.
(§4) A-549, HT-29, MEL-28 and DU-145 cells were seeded into 16 mm diameter wells at 1×10^4 cells per well in 1 ml aliquots of EMEM 5% FCS containing different concentrations of the sample to be tested. A separate set of cultures without drug was seeded as control of growth, to ensure that cells remained in exponential phase of growth. All determinations are carrying out in duplicate. After three days of incubation at 37° C., 5% CO2 in a 98% humid atmosphere cells were stained with 0.1% crystal violet. An approximately IC50 was determined by comparing the growth in wells with drug to the growth in wells control.
(§5) For quantifying the activity, after the incubation time, cells are trypsinized and counted in a Coulter Counter ZM. All counts (net cells per well), represent the average of duplicate wells. % G, percent of growth relative to cultures without drug. The results of these assays are used to generate dose-response curves from which more precise IC50 values are determined (sample concentration which produces 50% cell growth inhibition).
(§6) Obtained results may predict the usefulness of a certain drug as a potential cancer treatment. For this technique, compounds which show IC50 values smaller than 1 μg/ml are selected to continue with further studies. IC50's data allow to predict that not only could a drug be cystostatic, but also it could have a potential in terms of tumor reduction.

A-549 [2] = assay: Inhibition of cell growth by counting cells, A-549; assay type: cell-based, human; conditions: Homo sapiens, A549, 72 h; three days of incubation; read-out: IC50 (molar) A-549
Description: as §1, §2, §3, §4, §5, §6

HT-29 [3] = assay: Inhibition of cells growth by colorimetric assay (SRB), HT-29; assay type: cell-based; conditions: for GI50 / LC50 (concentration for 50% cell killing): Homo sapiens, HT-29, 48 h
Description: (§7) 2°.—Inhibition of Cells Growth by Colorimetric Assay.
(§8) A colorimetric type of assay, using sulforhodamine B (SRB) reaction has been adapted for a quantitative measurement of cell growth and viability [following the technique described by Philip Skehan, et al. (1990), New colorimetric cytotoxicity assay for anticancer drug screening, J. Natl. Cancer Inst., 82:1107-1112]
(§9) This form of the assay employs 96 well cell culture microplates of 9 mm diameter (Faircloth, 1988; Mosmann, 1983). Most of the cell lines are obtained from American Type Culture Collection (ATCC) derived from different human cancer types.
(§10) Cells are maintained in RPMI 1640 10% FBS, supplemented with 0.1 g/l penicillin and 0.1 g/l streptomycin sulfate and then incubated at 37° C., 5% CO2 and 98% humidity. For the experiments, cells were harvested from subconfluent cultures using trypsin and resuspended in fresh medium before plating.
(§11) Cells are seeded in 96 well microtiter plates, at 5×10^3 cells per well in aliquots of 195 μl medium, and they are allowed to attach to the plate surface by growing in drug free medium for 18 hours. Afterward, samples are added in aliquots of 5 μl in a ranging from 10 to 10^−8 μg/ml, dissolved in DMSO/EtOH/PBS (0.5:0.5:99). After 48 hours exposure, the antitumor effect are measured by the SRB methodology: cells are fixed by adding 50 μl of cold 50% (wt/vol) trichloroacetic acid (TCA) and incubating for 60 minutes at 4° C. Plates are washed with deionized water and dried. One hundred μl of SRB solution (0.4% wt/vol in 1% acetic acid) is added to each microtiter well and incubated for 10 minutes at room temperature. Unbound SRB is removed by washing with 1% acetic acid. Plates are air dried and bound stain is solubilized with Tris buffer. Optical densities are read on a automated spectrophotometric plate reader at a single wavelength of 490 nm.
(§12) The values for mean+/−SD of data from triplicate wells are calculated. Some parameters for cellular responses can be calculated: GI=growth inhibition, TGI=total growth inhibition (cytostatic effect) and LC=cell killing (cytotoxic effect).
as §6, with “GI50” for “IC50”, “10” for “1”, “GI50's” for “IC50's”

A-549 [4] = assay: Inhibition of cells growth by colorimetric assay (SRB), A-549; assay type: cell-based; conditions: for GI50 / LC50 (concentration for 50% cell killing): Homo sapiens, A549, 48 h; for GI50: read-out: A-549 GI50; for LC50 (concentration for 50% cell killing): read-out: A-549 LC50, SRB assay, 48 hours exposure
Description: as §7, §8, §9, §10, §11, §12
as §6, with “GI50” for “IC50”, “10” for “1”, “GI50's” for “IC50's”

[5] = SRB assay, 48 hours exposure, read-out: HT-29 GI50
[6] = read-out: HT-29 LC50, SRB assay, 48 hours exposure

SMILES | IC50 (HT-29 [1]) | IC50 (A-549 [2]) | GI50 (HT-29 [3]; [5]) | LC50 (concentration for 50% cell killing) (HT-29 [3]; [6]) | HT-29 TGI (HT-29 [3]; SRB assay, 48 hours exposure) | GI50 (A-549 [4]; SRB assay, 48 hours exposure) | LC50 (concentration for 50% cell killing) (A-549 [4]) | A-549 TGI (A-549 [4]; SRB assay, 48 hours exposure) | further results
COc1cc2c(cc1OC(=O)OC(C)(C)C)CCN[C@]21CS[C@@H]2c3c(OC(=O)C(F)(F)F)c(C)c4c(c3[C@H](COC1=O)N1C2[C@H]2c3c(cc(C)c(OC)c3OC(=O)C(F)(F)F)C[C@@H]([C@@H]1C#N)N2C)OCO4 (some centres unmarked) [Compound 109] | 0.98 nM | 0.98 nM | – | – | – | – | – | – | –
COc1cc2c(cc1OC(=O)OC(C)(C)C)CCN[C@]21CS[C@@H]2c3c(OC(=O)OC(C)(C)C)c(C)c4c(c3[C@H](COC1=O)N1C2[C@H]2c3c(cc(C)c(OC)c3OC(=O)OC(C)(C)C)C[C@@H]([C@@H]1C#N)N2C)OCO4 (some centres unmarked) [Compound 110] | 0.0972 nM | 0.0972 nM | – | – | – | – | – | – | –
CCCC(=O)Oc1c(C)c2c(c3c1[C@H]1SC[C@]4(NCCc5cc(OC(=O)OC(C)(C)C)c(OC)cc54)C(=O)OC[C@@H]3N3C1[C@H]1c4c(cc(C)c(OC)c4OC(=O)CCC)C[C@@H]([C@@H]3C#N)N1C)OCO2 (some centres unmarked) [Compound 112] | 10.3 nM | 10.3 nM | – | – | – | – | – | – | –
COc1cc2c(cc1OC(=O)OC(C)(C)C)CCN[C@]21CS[C@@H]2c3c(OC(=O)/C=C/c4ccccc4)c(C)c4c(c3[C@H](COC1=O)N1C2[C@H]2c3c(cc(C)c(OC)c3OC(=O)/C=C/c3ccccc3)C[C@@H]([C@@H]1C#N)N2C)OCO4 (some centres unmarked) [Compound 114] | 9.18 nM | 9.18 nM | – | – | – | – | – | – | –
C=CCOC(=O)Oc1c(C)c2c(c3c1[C@H]1SC[C@]4(NCCc5cc(OC(=O)OC(C)(C)C)c(OC)cc54)C(=O)OC[C@@H]3N3C1[C@H]1c4c(cc(C)c(OC)c4O)C[C@@H]([C@@H]3C#N)N1C)OCO2 (some centres unmarked) [Compound 115] | 0.11 nM | 0.11 nM | – | – | – | – | – | – | –
COc1cc2c(cc1O)CCN(C)[C@]21CS[C@@H]2c3c(OC(C)=O)c(C)c4c(c3[C@H](COC1=O)N1C2[C@H]2c3c(cc(C)c(OC)c3O)C[C@@H]([C@@H]1C#N)N2C(=O)OC(C)(C)C)OCO4 (some centres unmarked) [Compound 200] | – | – | 23 nM | 1150 nM | 8.05E-09 | 23 nM | 115 nM | 3.45E-08 | –
COc1cc2c(cc1OC(C)=O)CCN[C@]21CS[C@@H]2c3c(OC(C)=O)c(C)c4c(c3[C@H](COC1=O)N1C2[C@@H]2N[C@@H](Cc3cc(C)c(OC)c(O)c32)[C@@H]1O)OCO4 (some centres unmarked) [Compound 210] | – | – | – | 63300 nM | 6.33E-08 | – | 38000 nM | 5.06E-13 | –
CCCC(=O)Oc1cc2c(cc1OC)[C@@]1(CS[C@@H]3c4c(OC(C)=O)c(C)c5c(c4[C@H](COC1=O)N1C3[C@@H]3N[C@@H](Cc4cc(C)c(OC)c(O)c43)[C@@H]1O)OCO5)NCC2 (some centres unmarked) [Compound 211] | – | – | 0.00122 nM | 61100 nM | 1.22E-12 | 0.00367 nM | 61100 nM | 6.11E-09 | –
CC(=O)Oc1c(C)c2c(c3c1[C@H]1SCC(=O)C(=O)OC[C@@H]3N3C1[C@H]1c4c(cc(C)c(O)c4O)C[C@@H]([C@@H]3C#N)N1C)OCO2 (some centres unmarked) [Compound 219] | – | – | 82.4 nM | 16500 nM | 1.65E-06 | 8.24 nM | 16500 nM | 1.65E-06 | –
COc1cc2c(cc1O)CCN[C@]21CS[C@@H]2c3c(OC(C)=O)c(C)c4c(c3[C@H](COC1=O)N1C2[C@H]2c3c(cc(C)c(O)c3O)C[C@@H]([C@@H]1C#N)N2C)OCO4 (some centres unmarked) [Compound 220] | – | – | – | – | – | – | 6610 nM | 3.96E-07 | GI50 (HT-29 [3]; read-out: H-T29 GI50): 132 nM; LC50 (concentration for 50% cell killing) (HT-29 [3]; read-out: H-T29 LC50, SRB assay, 48 hours exposure): 1320 nM; H-T29 TGI (HT-29 [3]; SRB assay, 48 hours exposure): 5.28E-07; GI50 (A-549 [4]): 132 nM
